The source of these data is patent publication US10336732B2, “1-heterocyclyl isochromanyl compounds and analogs for treating CNS disorders” (Sunovion Pharmaceuticals Inc., priority 2015, dated 2019).

The structures appear in SMILES notation.

One test deals with T1, 5-HT5a (Homo sapiens, UniProt P47898).
T1 construct: expressed in transfected cells; host or cells: HEK-293 cells
Briefly: In vitro radioligand binding assay, 5-HT5a, [3H]LSD. The note with it: human recombinant (HEK-293 cells). How it is done:
(§1) Certain compounds were tested by in vitro binding assays using standard procedures. […] These receptors and assays are well known to those skilled in the art, as exemplified by the following: Abramovitz, M. et al. (2000), Biochem. Biophys. Acta., 1483: 285-293 (EP4, IP (PGI2)); Aharony, D. et al. (1993), Mol. Pharmacol., 44: 356-363 (NK2); Ardati, A. et al. (1997), Mol. Pharmacol., 51: 816-824 (NOP (ORL1)); Bignon, E. et al. (1999), J. Pharmacol. Exp. Ther. 289: 742-751 (CCK1 (CCKA)); Bloomquist, B. T. et al. (1998), Biochem. Biophys. Res. Commun., 243: 474-479 (GAL2); Brockhaus, M. et al. (1990), Proc. Natl. Acad. Sci. U.S.A., 87: 3127-3131 (TNF-α); Brown, G. B. (1986), J. Neurosci., 6: 2064-2070 (Na+ channel (site 2)); Buchan, K. W. et al. (1994), Brit. J. Pharmacol., 112: 1251-1257 (ETA); Cesura, A. M. et al. (1990), Mol. Pharmacol., 37: 358-366 (MAO-A); Choi, D. S. et al. (1994), FEBS Lett., 352: 393-399 (5-HT2B); Clark, A. F. et al. (1996), Invest. Ophtalmol. Vis. […]

Another test has as its target T2, κ (KOP) (Rattus norvegicus, UniProt P34975).
T2 construct: expressed in transfected cells; host or cells: CHO cells
In words: In vitro radioligand binding assay, κ (KOP), [3H]U 69593. The note with it: rat recombinant (CHO cells). As to the method:
as §1, with “Vis. Sci., 37: 805-813 (GR); Couvineau, A. et al. (1985), Biochem. J., 231: 139-143 (VPAC1 (VIP1)); Dorje, F. et al. (1991), J. Pharmacol. Exp. Ther., 256: 727-733 (M1, M2, M3, M4); Ferry, G. et al. (2001), Eur. J. Pharmacol., 417: 77-89 (PPARγ); Fuchs, S. et al. (2001), Mol. Med., 7: 115-124 (ETB); Fuhlendorff, J. et al. (1990), Proc. Natl. Acad. Sci. U.S.A., 87: 182-186 (Y2); Ganapathy M E. et al. (1999), J. Pharmacol. Exp. Ther., 289: 251-260 (sigma (non-selective)); Gopalakrishnan, M. et al. (1996), J. Pharmacol. Exp. Ther., 276: 289-297 (N neuronal α4β2); Greengrass, P. and Bremner, R. (1979), Eur. J. Pharmacol., 55: 323-326 (α1 (non-selective)); Grandy, D. K. et al. (1989), Proc. Natl. Acad. Sci. U.S.A., 86: 9762-9766 (D25); Guard, S. et al. (1993), Eur. J. Pharmacol., 240:177-184 (BB (non-selective)); Heuillet, E. et al. (1993), J. Neurochem., 60: 868-876 (NK1, P2X); Hope, A. G. et al. (1996), Brit.” for “Vis.”

The subject of the next test is sigma (non-selective). In words: In vitro radioligand binding assay, sigma (non-selective), [3H]DTG, Jurkat cells. The note with it: Jurkat cells (endogenous). As to the method:
as §1

T2 sequence (P34975 whole entry): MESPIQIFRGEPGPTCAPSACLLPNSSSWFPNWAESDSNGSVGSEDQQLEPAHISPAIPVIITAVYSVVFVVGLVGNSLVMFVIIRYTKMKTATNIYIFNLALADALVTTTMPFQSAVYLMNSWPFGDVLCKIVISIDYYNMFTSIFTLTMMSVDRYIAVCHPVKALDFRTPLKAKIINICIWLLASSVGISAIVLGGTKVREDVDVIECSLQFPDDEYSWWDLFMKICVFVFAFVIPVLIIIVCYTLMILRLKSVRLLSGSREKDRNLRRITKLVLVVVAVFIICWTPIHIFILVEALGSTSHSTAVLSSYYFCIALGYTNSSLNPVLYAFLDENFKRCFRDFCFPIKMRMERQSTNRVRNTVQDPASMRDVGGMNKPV
T1 sequence (P47898 whole entry): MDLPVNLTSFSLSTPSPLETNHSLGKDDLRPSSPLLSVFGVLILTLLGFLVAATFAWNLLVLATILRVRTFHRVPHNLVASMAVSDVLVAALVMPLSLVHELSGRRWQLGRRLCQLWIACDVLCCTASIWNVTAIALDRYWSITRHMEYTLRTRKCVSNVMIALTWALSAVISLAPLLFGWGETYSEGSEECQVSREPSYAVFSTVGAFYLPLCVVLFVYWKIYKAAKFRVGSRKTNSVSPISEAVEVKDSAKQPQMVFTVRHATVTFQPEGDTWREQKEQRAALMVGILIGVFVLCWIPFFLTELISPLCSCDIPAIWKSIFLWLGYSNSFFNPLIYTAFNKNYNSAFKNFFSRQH

Consider `Fc1cccc2c1[C@H]([C@@H]1CCN1)OCC2` [Compound I-83, (S)-2-((R)-8-fluoroisochroman-1-yl)azetidine], for which, at 5-HT5a, the “5HT5a percent inhibition of specific binding” value is 58%. Consider `Fc1cccc2c1CCO[C@@H]2[C@@H]1CCN1` [Compound I-94, (S)-2-((S)-5-fluoroisochroman-1-yl)azetidine], for which the “κ (KOP) percent inhibition of specific binding” value (from here on “κ (KOP) percent inhibition”) on κ (KOP) is 67%. The “sigma percent inhibition of specific binding” value in the test with sigma (non-selective) is on record as “sigma (85%)”. Consider `Fc1ccc2c(c1)CCO[C@H]2[C@@H]1CCN1` [Compound I-90, (S)-2-((R)-6-fluoroisochroman-1-yl)azetidine], for which the “sigma percent inhibition of specific binding” value with sigma (non-selective) was 63%. For the compound `Clc1ccc2c(c1)[C@H]([C@@H]1CCCN1)OCC2` [Compound I-29, (S)-2-((R)-7-chloroisochroman-1-yl)pyrrolidine], the “κ (KOP) percent inhibition” value on κ (KOP) is 89%.

As for `Fc1ccc2c(c1)[C@H]([C@@H]1CCCN1)OCC2` [Compound I-5, (2S)-2-((R)-7-fluoroisochroman-1-yl)pyrrolidine], on κ (KOP), the “κ (KOP) percent inhibition” value is listed as 71%.
